Measured values published in patent publication US20090105118A1, “Preparation and applications of novel complexes made by gamma-polyglutamic acid and cisplatin” (priority 2007, published 2009).

Assays:
[1] = system: Lung cancer cells; conditions: mice; PG-TXL injected at 120 mg/kg; paclitaxel used alone; cited from earlier work
[2] = In vivo toxicity study in healthy mice (survival, body weight); conditions: Kun Ming mice, 5 mg/kg tail vein at 0, 5 and 10 days
Experimental: 20 healthy Kun Ming mice were randomly divided (10 each for male and female) into two groups. Cisplatin and γ-PGA-CDDP was individually injected in each group in a tail vein. The injections were done at 0, 5, and 10 days at 5 mg/kg. The survival and body weight of the mice were recorded. The results are shown in FIG. 10 and FIG. 11 which are comparisons of the toxicity of γ-PGA-CDDP and CDDP based on the survival of China KM mice and based on the body weight of China KM mice.

[3] = system: Human breast cancer cells Bcap-37; test: Bcap-37 xenograft model, survival and body weight; assay type: in vivo, BALB/C female SKID mouse; conditions: Bcap-37 xenograft mice, equivalent of 4 mg/kg cisplatin, tail vein at 0 and 5 days
Experimental: Human breast cancer cells Bcap-37 in DMEM with 10% […] were cultured at 37° C. and 5% CO2. 5×10^6 Bcap cells were injected in each of BALB/C female SKID mouse (18 mice, 4 week old, 20 g each). After 7 days the mice were randomly divided into 3 groups, 6 mice per group. The first group was treated with saline, the second group was treated with cisplatin, and the third group was treated with γ-PGA-CDDP. γ-PGA-CDDP complex (at equivalent of 4 mg/kg cisplatin) was injected in a tail vein at 0 and 5 days. The survival and body weight was recorded. The results are shown in FIG. 12 and FIG. 13 which are comparisons of the toxicity of γ-PGA-CDDP and CDDP based on the survival and body weight of BALB/C female mice.

| Compound | reduction of lung cancer cells [1] [%] | body weight change (in vivo toxicity) [2] | mice died ([2]; after 15 days) [%] | body weight change (toxicity) [3] |
| --- | --- | --- | --- | --- |
| CC(=O)O[C@H]1C(=O)[C@@]2(C)[C@H]([C@H](OC(=O)c3ccccc3)[C@]3(O)C[C@H](OC(=O)[C@H](O)[C@@H](NC(=O)c4ccccc4)c4ccccc4)C(C)=C1C3(C)C)[C@]1(OC(C)=O)CO[C@@H]1C[C@@H]2O [paclitaxel] | 58 |  |  |  |
| cis-daimminedichloroplatinum(II) [cisplatin] |  | reduced | 90 | obvious decrease of body weight |
